From patent publication US7378513B2, “Isolated proteins from a traditional Chinese medicine Yuzhu and use thereof” (priority 2005, dated 2008)
≈ marks a conversion by molar mass, not a printed value. Where two headings read alike, the source gives them in different places.

Columns and labels:
HSV-1 (15577) [1] = assay: microbe, parasite or virus in culture; type: cell-based, Herpes Simplex Virus; conditions: Human alphaherpesvirus 1; plaque reduction assay, Vero cells; M2 value is the average of two
HSV-1 (15577) [2] = assay: microbe, parasite or virus in culture; type: cell-based, Herpes Simplex Virus; conditions: Human alphaherpesvirus 1, CPE method
HSV-2 = assay: Cytopathic effect (CPE) inhibition assay, HSV-2; type: cell-based, Herpes Simplex Virus; conditions: Human alphaherpesvirus 2; CPE method, Vero cells
rabbit erythrocytes = assay: Hemagglutinating test, rabbit red blood cells; type: cell-based
Protocol: The assay was carried out in a U-shape microtiter plate as described previously (Ooi et al., 1998). […] Specific hemagglutinating activity was expressed as the number of hemagglutinating units per mg protein in Table 3. Rabbit, human (ABO groups), and chicken red blood cells were used for hemagglutinating test. Concanavalin A (ConA) was used as a positive control, and phosphate-buffered saline (PBS, 0.1M, pH7.4) as a negative control. A serial twofold dilution of the lectin solution (in PBS) in microtitre U-plates (50 μl) was mixed with 50 μl of a 2% suspension of red blood cells in PBS at room temperature. The results were read after about one hour when the blank (with red blood cells and buffer only) had fully sedimented.

RSV (long strain) [3] = assay: microbe, parasite or virus in culture; type: cell-based; conditions: human respiratory syncytial virus; plaque reduction assay
RSV (long strain) [4] = assay: microbe, parasite or virus in culture; type: cell-based, respiratory syncytial virus; conditions: CPE method; for IC50: human respiratory syncytial virus

Q: How did the IC50 (HSV-1 (15577) [1]) turn out when Nc1nc2c(ncn2COCCO)c(=O)[nH]1 [Acyclovir] was run?
A: 0.15 µg/mL (≈ 0.666 µM)

Q: What about the IC50 (HSV-1 (15577) [2]; Vero cells, Table 4a Yuzhu (Dried Herbs)) of the same compound?
A: 0.25 µg/mL (≈ 1.11 µM)

Q: What about the IC50 (HSV-1 (15577) [2]; Table 4b Yuzhu (Fresh Herbs)) of the same compound?
A: 0.25 µg/mL (≈ 1.11 µM)

Q: And the IC50 (HSV-2)?
A: 0.35 µg/mL (≈ 1.55 µM)

Q: Which Specific hemagglutinating activity (rabbit erythrocytes) does the source give for Concanavalin A [ConA] here?
A: 12,800 U/mg protein

Q: How did the IC50 (RSV (long strain) [3]) turn out when NC(=O)c1ncn([C@@H]2O[C@H](CO)[C@@H](O)[C@H]2O)n1 [Ribavirin] was run?
A: 3.3 µg/mL (≈ 13.5 µM)

Q: What about the “IC50 RSV (long strain)” value (RSV (long strain) [4]; Hep2 cells, Table 4a Yuzhu (Dried Herbs), listed as Ribvirin) of the same compound?
A: (6.3) μg/ml

Q: What about the IC50 (RSV (long strain) [4]; HEp-2, Hep2 cells, Table 4a Yuzhu (Dried Herbs), read-out: IC50 RSV (long strain)) of the same compound?
A: 6.3 µg/mL (≈ 25.8 µM)

Q: What about the IC50 (RSV (long strain) [4]; Table 4b Yuzhu (Fresh Herbs), read-out: IC50 RSV) of the same compound?
A: 6.3 µg/mL (≈ 25.8 µM)
